These results are taken from ChEMBL document CHEMBL1781984 (J Nat Prod, 2011).

In one data set the test system is MCF7. As to the kind of experiment: Anticancer activity against human MCF7 cells. Type of data set: functional.
A further data set relates to NCI-H460. As to the kind of experiment: Anticancer activity against human NCI-H460 cells. The format is functional.
Another data set deals with KM-20L2. As to the kind of experiment: Anticancer activity against human KM20L2 cells. Type of data set: functional.
For the next data set, the system named is BXPC-3. In words: Anticancer activity against human BxPC3 cells. Type of data set: functional.
Another data set deals with SF-268. In words: Anticancer activity against human SF268 cells. The format is functional.
For the next data set, the system named is DU-145. In words: Anticancer activity against human DU145 cells. The format is functional.
A short description of data set [1]: Aqueous solubility of the compound in distilled water at 23 degC. The format is physicochemical.
The subject of the next data set is P388. As to the kind of experiment: Anticancer activity against mouse P388 cells. Type of data set: functional.

For the compound `CC[C@H](C)[C@@H]([C@@H](CC(=O)N1CCC[C@H]1[C@H](OC)[C@@H](C)C(=O)Nc1ccc2ccccc2n1)OC)N(C)C(=O)[C@@H](NC(=O)[C@H](C(C)C)N(C)C)C(C)C`, the GI50 (commonly the concentration that inhibits growth by half) with MCF7 was 6.35 nM; in the data set on NCI-H460 it was 22.1 nM; in the data set on KM-20L2, 10.6 nM; with BXPC-3, 40.1 nM; in the data set on SF-268, 40.1 nM; with DU-145, 31.8 nM.

On to `CC[C@H](C)[C@@H]([C@@H](CC(=O)N1CCC[C@H]1[C@H](OC)[C@@H](C)C(=O)Nc1ccc2ncccc2c1)OC)N(C)C(=O)[C@@H](NC(=O)[C@H](C(C)C)N(C)C)C(C)C`, for which the GI50 is 0.19 nM in the data set with MCF7; 0.5 nM with NCI-H460; 0.35 nM in the data set with KM-20L2; 0.43 nM in the data set on BXPC-3; 0.22 nM in the data set with SF-268; 0.41 nM in the data set on DU-145.

For the compound `C1COCCN1.CC[C@H](C)[C@@H]([C@@H](CC(=O)N1CCC[C@H]1[C@H](OC)[C@@H](C)C(=O)NCCc1ccc(OP(=O)(O)O)cc1)OC)N(C)C(=O)[C@@H](NC(=O)[C@H](C(C)C)N(C)C)C(C)C` [MORPHOLINE AURISTATIN TP], in data set [1], the solubility (as a rule, how much of the substance goes into solution per volume) was > 72 mg/mL.

Take `CC[C@H](C)[C@@H]([C@@H](CC(=O)N1CCC[C@H]1[C@H](OC)[C@@H](C)C(=O)NCCc1ccc(OP(=O)(O)O)cc1)OC)N(C)C(=O)[C@@H](NC(=O)[C@H](C(C)C)N(C)C)C(C)C` [POTASSIUM AURISTATIN TP]: the GI50 in the data set with P388 was determined as 8.7 nM.

In the case of `C=C[C@H]1CN2CCC1C[C@H]2[C@H](O)c1ccnc2ccc(OC)cc12.CC[C@H](C)[C@@H]([C@@H](CC(=O)N1CCC[C@H]1[C@H](OC)[C@@H](C)C(=O)NCCc1ccc(OP(=O)(O)O)cc1)OC)N(C)C(=O)[C@@H](NC(=O)[C@H](C(C)C)N(C)C)C(C)C` [Quinine Auristatin TP], in data set [1], the solubility was < 5 mg/mL.

Turning to `CC[C@H](C)[C@@H]([C@@H](CC(=O)N1CCC[C@H]1[C@H](OC)[C@@H](C)C(=O)NCCc1ccc(OP(=O)(O)O)cc1)OC)N(C)C(=O)[C@@H](NC(=O)[C@H](C(C)C)N(C)C)C(C)C` [SODIUM AURISTATIN TP], the GI50 with MCF7 was 0.81 nM; with NCI-H460 it was 1.05 nM; with KM-20L2, 0.72 nM; with BXPC-3 it was 54.6 nM; with SF-268 it was 1.48 nM; in the data set with P388, < 1.2 nM. This compound also came in with a 50% growth inhibitory concentration (GI50) in the data set on DU-145 of 0.64 nM.
